One assay addresses T7 RNA polymerase (Escherichia phage T7, UniProt P00573). The note with it: HB-WT Template, ARCA Cap (4:1 ARCA:GTP).
The next assay concerns T7 or SP6 RNA polymerase. Particulars: either 3'-OH of G or m7G can initiate elongation; cited from earlier work.

The values that follow come from patent US12385039B2, “Trinucleotide cap analogs, preparation and uses thereof” (LIFE TECHNOLOGIES CORPORATION, priority 2020, dated 2025).

T7 RNA polymerase, sequence (P00573 whole entry, looked up): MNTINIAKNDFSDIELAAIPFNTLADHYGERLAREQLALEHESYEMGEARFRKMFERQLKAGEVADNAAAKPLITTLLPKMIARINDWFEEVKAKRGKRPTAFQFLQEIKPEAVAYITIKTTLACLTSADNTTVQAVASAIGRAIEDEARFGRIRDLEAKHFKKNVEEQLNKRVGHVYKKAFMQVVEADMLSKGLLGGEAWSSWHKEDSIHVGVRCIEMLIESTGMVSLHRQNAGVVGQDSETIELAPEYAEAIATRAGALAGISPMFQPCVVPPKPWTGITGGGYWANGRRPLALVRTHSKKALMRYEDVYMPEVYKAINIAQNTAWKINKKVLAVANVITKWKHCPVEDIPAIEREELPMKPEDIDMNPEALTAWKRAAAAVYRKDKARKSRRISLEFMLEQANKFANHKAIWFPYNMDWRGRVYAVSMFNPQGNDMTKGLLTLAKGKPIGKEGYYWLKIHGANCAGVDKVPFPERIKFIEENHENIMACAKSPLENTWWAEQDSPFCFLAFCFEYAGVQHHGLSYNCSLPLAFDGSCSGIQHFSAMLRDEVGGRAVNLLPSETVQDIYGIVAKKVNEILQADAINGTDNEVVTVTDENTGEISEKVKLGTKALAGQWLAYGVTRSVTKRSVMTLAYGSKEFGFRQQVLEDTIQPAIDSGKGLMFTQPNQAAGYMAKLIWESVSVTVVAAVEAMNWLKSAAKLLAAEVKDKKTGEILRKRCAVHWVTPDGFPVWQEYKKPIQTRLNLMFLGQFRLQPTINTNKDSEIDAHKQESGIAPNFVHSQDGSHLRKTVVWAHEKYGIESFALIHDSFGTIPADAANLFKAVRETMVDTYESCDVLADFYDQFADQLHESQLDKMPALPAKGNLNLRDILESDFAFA
Procedure for T7 RNA polymerase: The DNAzyme reaction was performed in a 20 μl reaction containing 1-2 μg RNA and 0.5 μM DNAzyme in 50 mM Tris-HCl pH 7.5. The reaction mixture was preheated at 85° C. for 30 seconds and equilibrate at 37° C. for 5 minutes and added magnesium chloride to 10 mM so that the total volume was 20 μl. The reaction mixture was incubated at 37° C. for 1 hour and stopped by adding 2 μL TURBO DNase and incubating at 37° C. for 30 minutes.
The DNAzyme reaction mixture was prepared for gel analysis by mixing with 2× NOVEX™ TBE-Urea sample buffer (Thermo Fisher Scientific, cat. no. LC6876) and heating at 70° C. for 2 minutes. The sample was loaded onto a NovEx™ 15% TBE-Urea gel (Thermo Fisher Scientific, cat. no. EC68855BOX) and ran at 15 V, 15 mA for 1 hour and 40 minutes or until the bromophenol blue dye migrated to the bottom of the gel. The gel was removed from the cassette, washed in water, and stained with SYBR™ Gold Nucleic Acid Gel Stain (Thermo Fisher Scientific, cat. no. S11494) for 5-10 minutes. Following a brief wash in water, the gel was visualized over an UV light and an image was captured using an iBRIGHT™ system (Thermo Fisher Scientific). Capping efficiency was determined using […] ™ software (ProteinSimple) to measure band intensities of the fast and slow migrating transcripts (capped transcripts are longer than uncapped transcripts; therefore uncapped migrates faster).

Take `CO[C@H]1[C@@H](O)[C@H](n2c[n+](C)c3c(=O)[nH]c(N)nc32)O[C@@H]1COP(=O)(O)OP(=O)(O)OP(=O)(O)OC[C@H]1O[C@@H](n2cnc3c(=O)[nH]c(N)nc32)[C@H](O)[C@@H]1O` [ARCA Cap]: the “Capping Efficiency Avg % capped” value at T7 RNA polymerase stood at 71.93%.
On to `Cn1c[n+]([C@@H]2O[C@H](COP(=O)(O)OP(=O)(O)OP(=O)(O)OC[C@H]3O[C@@H](n4cnc5c(=O)[nH]c(N)nc54)[C@H](O)[C@@H]3O)[C@@H](O)[C@H]2O)c2nc(N)[nH]c(=O)c21` [mCAP, m^7G(5′)ppp(5′)G], for which the “capped RNA that is translatable” value in the assay with T7 or SP6 RNA polymerase was about 50%.
